{
  "source": "paper PMC9413440",
  "about": "“An Iterative Approach Guides Discovery of the FabI Inhibitor Fabimycin, a Late-Stage Antibiotic Candidate with In Vivo Efficacy against Drug-Resistant Gram-Negative Infections” (ACS Central Science, 2022)",
  "key": {"A. baumannii FabI": {"target": "A. baumannii FabI (Acinetobacter baumannii, UniProt D0CAD5)", "sequence (D0CAD5 entry or part of it)": "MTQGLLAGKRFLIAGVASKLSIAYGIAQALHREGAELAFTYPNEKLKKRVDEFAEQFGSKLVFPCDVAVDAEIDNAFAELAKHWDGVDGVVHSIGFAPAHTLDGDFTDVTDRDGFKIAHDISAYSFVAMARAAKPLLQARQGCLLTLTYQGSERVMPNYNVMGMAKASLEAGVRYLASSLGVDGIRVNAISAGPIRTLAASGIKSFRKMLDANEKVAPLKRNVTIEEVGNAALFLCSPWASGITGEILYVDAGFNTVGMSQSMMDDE", "assay": "Differential scanning fluorimetry", "format": "binding", "settings": "relative to the holoenzyme", "experimental": "supplemented with 100 µg/mL ampicillin at 37°C until OD600 reached 0.6-0.7. The cells were induced with 1mM IPTG and incubated for 20 hours at 18°C and spun down at 8000 rpm for 15 minutes. Cell pellet was resuspended in the lysis buffer (50 mM Tris-HCl pH 8.0, 500 mM Na Cl, 20 mM imidazole, 10% glycerol, 0.5 mM TCEP, protease inhibitor and Lysonase) and passed through microfluidizer followed by centrifugation and filtration to remove cell debris. The clarified lysate was supplemented with 20 mM imidazole and passed over a HisTrap column (Cytiva) pre-equilibrated with the wash buffer (50 mM Tris-HCl pH 8.0, 500 mM NaCl, 20 mM imidazole, 10% glycerol, 0.5 mM TCEP). The column was washed with the wash buffer and eluted over a 20-500 mM imidazole gradient. […]\nRecombinant E. coli and A. baummani FabI enzymes were used in a continuous NADH absorbance assay (20 µL in 384w format). […] After shaking for 5 seconds the reaction was monitored at NADH absorbance (340nm, 25°C) using a Molecular Devices SpectraMax M5 microplate reader. The linear portion of the progress curve was fit using plate-reader software. Percentage activity was calculated relative to DMSO only and no-substrate controls in each plate and the data were fit to Morrison’s quadratic using Graphpad Prism 9.3 to obtain apparent inhibition constant (Ki app) values. […]"}, "[1]": {"format": "in vitro ADME", "experimental": "Forward 5’-GGG-GCC-AGC-GTT-TCT-TTT-TC-3‘ Parker, 20203\nReverse 5’-AAA-CAT-GGA-GAC-GGT-GCT-GG\nForward 5’-GTG-AGA-TCG-GCA-TGA-CAC-AA-3’ Lin, 20179\nReverse 5’-CTG-AAG-TCC-GCT-ACC-GTT-AT-3’\nCompound stability in mammalian plasma\nCandidate drugs were incubated with plasma and parent drug levels were monitored at various time points (generally t=0, 10, 20, 30, and 60 minutes) to determine the drug’s half-life in the presence of the chosen system. Each drug is tested in duplicate. Compounds were diluted from 10 mM DMSO stocks to 1 µM in a 100 mM pH 7.4 phosphate buffer and incubated at 37 °C with 0.5 mg/mL of human, rat, or mouse plasma (BioreclamationIVT, Baltimore, MD). Time points were collected at 0 min (after addition of drug), 15 min, 30 min, 60 min, and 120 min following quenching with an equal volume of acetonitrile. The supernatant was collected after centrifugation, and the sample analyzed by LC-MS where the percentage of compound remaining is plotted vs time to determine the drug’s half-life.\nCompound plasma protein binding\nCandidate drugs were incubated with plasma and parent drug levels are monitored after 4 hours to determine the drug’s free concentration in the presence of the plasma proteins. The standard assay involves equilibrium dialysis, in which compound is allowed to equilibrate between a protein-containing compartment from a protein-free compartment. Each"}, "[2]": {"tested_on": "Bacteroides fragilis ATCC 25285", "assay": "MIC, commensal bacteria", "format": "cell-based", "settings": "ATCC25285", "experimental": "(§1) II. Materials and Methods for Biological Experiments\n(§2) S. aureus ATCC 29213 and E. coli MG1655 were obtained from the American Type Culture Collection (ATCC). E. coli BW25113 and E. coli JW5503 were obtained from the Keio Collection. AR-bank strains were obtained from the Centers for Disease Control and Prevention and FDA Antibiotic Resistance Isolate Bank.\n(§3) Antimicrobial susceptibility tests\n(§4) Susceptibility testing was performed in biological triplicate, unless noted otherwise, using the micro-dilution broth method as outlined by the Clinical and Laboratory Standards Institute. Bacteria were cultured with cation-adjusted Mueller Hinton broth (Sigma Aldrich, catalogue number: 90922). […]\n(§5) Error bars represent the standard error of the mean of three biological replicates. All compounds evaluated in biological assays were ≥95% pure."}, "[3]": {"tested_on": "Stenotrophomonas maltophilia ATCC 13637", "assay": "MIC, commensal bacteria", "format": "cell-based", "settings": "ATCC13637", "experimental": "as §1, §2, §3, §4, §5"}, "[4]": {"tested_on": "Streptococcus salivarius KLE 2370", "assay": "MIC, commensal bacteria", "format": "cell-based", "settings": "KLE2370", "experimental": "as §1, §2, §3, §4, §5"}},
  "note": "Where two headings read alike, the source gives them in different places.",
  "data": [
    {"smiles": "Cc1c(CN(C)C(=O)/C=C/c2cnc3c(c2)CC[C@@H](N)C(=O)N3)oc2ccccc12", "note": "[(R)-7]", "values": [
      {"measurement": "ΔTm", "setting": "A. baumannii FabI", "result": "18 ± 0.5", "unit": "°C"}
    ]},
    {"smiles": "Cc1c(CN(C)C(=O)/C=C/c2cnc3c(c2)CC[C@H](N)C(=O)N3)oc2ccccc12", "note": "[fabimycin]", "values": [
      {"measurement": "stability in plasma", "setting": "[1]; human", "result": "excellent stability"},
      {"measurement": "stability in plasma", "setting": "[1]; mouse", "result": "considerable instability"},
      {"measurement": "stability in plasma", "setting": "[1]; rat", "result": "excellent stability"},
      {"measurement": "MIC", "setting": "[2]", "result": "> 128", "unit": "µg/mL"},
      {"measurement": "MIC", "setting": "[3]", "result": 128, "unit": "µg/mL"},
      {"measurement": "MIC", "setting": "[4]", "result": "> 128", "unit": "µg/mL"},
      {"measurement": "ΔTm", "setting": "A. baumannii FabI", "result": "24 ± 0.5", "unit": "°C"}
    ]}
  ]
}
